Test results: publication PMC7719179, “Small molecule inhibition of Dynamin-dependent endocytosis targets multiple niche signals and impairs leukemia stem cells” (Nature Communications, 2020)
Where “and” joins values, the source holds several entries; their conditions need not be identical. Equal entries are not always repeated.

What was measured:
[1] = tested on: hematopoietic stem cells; assay: Competitive transplant with bone marrow cells from treated WT mice (HSC activity); assay type: in vivo
Protocol: induction-like therapy (VXL) or combination therapy was administered. Mean ± SEM, 2-way ANOVA […]
murine B (CD19+ B220+), T (CD3+) and Myeloid (Gr-1 + CD11b+ granulocytes and monocytes) cells (c ), as well as Lineage-negative Kit-positive (Lin -Kit+, LK) progenitors, different populations of multipotent progenitors (MPP) and hematopoietic stem cells (HSC; d) from the bone marrow of WT […]
administered. Vehicle was used as control. e, Experimental schematic of competitive transplant […]
harvested from isogenic Cd45.1+ mice. These cells were injected into lethally -irradiated recipients, and lineage reconstitution was monitored every 4 weeks, until 20 weeks post-transplantation when BM was harvested for analysis. f, Percent of donor -derived (Cd45.2 +) cells among all peripheral blood cells at 4, 8, 12, 16 and 20 weeks post- transplant. g-h , Absolute numbers of donor-derived (Cd45.2+) lineage-committed (B, and Myeloid) cells ( g), as well as LK, MPP populations and HSCs (h ) harvested from the BM of recipients at 20 weeks post- transplant. Mean ± SEM, 2-way ANOV A with Tukey’s correction test; *P<0.05, *** P<0.001 compared to vehicle; #P<0.05, ##P<0.01, ###P<0.001 compared to VXL. ns = not statistically significant.

[2] = tested on: AML01-307 and AML18 patient-derived xenografts; assay: Xenograft models of human AML (AML01-307, AML18): leukemic burden in blood, bone marrow, spleen; spleen weight; assay type: in vivo
Protocol: Patient-derived xenograft models were established as previously described[97],[98]. All experiments were pre-approved by the Human Research Ethics Committee of the University of New South Wales (UNSW), the UNSW Animal Care and Ethics Committee, the Alfred Health Human Ethics Committee and the AMREP Animal Ethics Committee. For transplantation assays, 10^6 splenocytes harvested from successfully engrafted primary human ETP-ALL or T-ALL xenografts were injected into nonobese diabetic/severe combined immunodeficient (NOD.Cg-Prkdc^scid, also termed NOD/SCID) or NOD/SCID/Il2rg^tm1wjl/SzJ (NSG) mice[99]. Moreover, 1.5 × 10^6 cells splenocytes harvested from successfully engrafted patient-derived AML xenografts were injected into nonobese diabetic/severe immunodeficient (NOD.Cg-Rag1^tm1MomIl2rg^tm1wjl/SzJ, also termed NRG) mice expressing human IL-3, human GM-CSF and human SCF from the SGM3 triple transgene (NRGS)[100]. Engraftment into recipients was monitored by FACS analysis of peripheral blood as previously described. […] Both males and females were used. […] Kaplan–Meier survival and statistical analyses were performed using GraphPad Prism. 6.0 software (GraphPad Software, Inc.).
Spleen and sternum from recipients were collected, incubated at least 24 h in 3.7% neutral buffered formalin (pH 7.4), embedded in paraffin and sectioned at 8 μm onto Superforst-Plus slides. Samples were incubated with an anti-human CD45 antibody (Dako, #M0701) in Dako Autostainer Plus solution, then incubated with a sheep anti-mouse IgG conjugated to HRP and processed as per standard protocols using 3,3’ Diaminobenzidine staining (#ab64238, Abcam) for all immunoblots, as previously described. Samples were imaged and annotated using an Aperio ScanScope and software system (Leica Biosystems). […]

CCCCCCCCNC(=O)C(C#N)=Cc1cn(CCCN(C)C)c2ccccc12 [Dynole 34-2, 2-Cyano-N-octyl-3-(1-(3-dimethylaminopropyl)-1H-indol-3-yl)-acrylamide]
Absolute numbers of Cd45.2+ cells in the bone marrow: B cells ([1]; Supplementary Figure 5g-h): 3150000 and 4270000 and 3310000 and 4360000
Absolute numbers of Cd45.2+ cells in the bone marrow: LK ([1]; Supplementary Figure 5g-h): 231000 and 185000 and 205000 and 163000 and 160000
Absolute numbers of Cd45.2+ cells in the bone marrow: Myeloid cells ([1]; Supplementary Figure 5g-h): 955000 and 1600000 and 1200000 and 1410000 and 1720000
Absolute numbers of Cd45.2+ cells in the bone marrow: T cells ([1]; Supplementary Figure 5g-h): 471000 and 332000 and 364000 and 374000 and 460000
effect on HSC fitness and differentiation potential ([1]; competitive transplant of bone marrow from treated mice, result in words): no detrimental effect on HSC fitness and differentiation potential
Proportion of CD45.2+ (%) in peripheral blood ([1]; week 4): 40.53% and 37.56% and 37.9% and 34.3% and 35.3%
Proportion of CD45.2+ (%) in peripheral blood ([1]; week 8): 36.97% and 46.65% and 45.78% and 44.9% and 43.63%
Proportion of CD45.2+ (%) in peripheral blood ([1]; week 12): 46.54% and 48.81% and 42.82% and 42.23% and 46.32%
Proportion of CD45.2+ (%) in peripheral blood ([1]; week 16): 42.09% and 57% and 54.04% and 43.93% and 53.26%
Proportion of CD45.2+ (%) in peripheral blood ([1]; week 20): 50.7% and 47.2% and 59.8% and 59.3% and 53.24%
Absolute numbers human CD45+ cells ([2]; AML01-307, BM): 749000 and 744000 and 1060000
Absolute numbers human CD45+ cells ([2]; AML01-307, Spleen): 5750000 and 6290000 and 9130000
Proportion of hCD45+ (%) in peripheral blood ([2]; AML01-307, time 1 weeks): 0.7% and 0.2% and 0.4% and 0.1%
Proportion of hCD45+ (%) in peripheral blood ([2]; AML01-307, time 2 weeks): 0.7% and 1.2% and 3.7% and 1% and 1.9% and 0.8%
Proportion of hCD45+ (%) in peripheral blood ([2]; AML01-307, time 3 weeks): 2.8% and 3.7% and 3.9% and 4.4% and 5.1% and 2% and 1.3%
Proportion of hCD45+ (%) in peripheral blood ([2]; AML01-307, time 4 weeks): 5.1% and 5.66% and 9.2% and 9% and 8.38% and 2.7% and 2.566% and 4.8%
Proportion of hCD45+ (%) in peripheral blood ([2]; AML01-307, time 5 weeks): 5.6% and 7.7% and 4.3% and 6.7% and 5.2% and 3.11% and 3.44% and 4.93%
Proportion of hCD45+ (%) in peripheral blood ([2]; AML01-307, time 6 weeks): 17.22%
Proportion of hCD45+ (%) in peripheral blood ([2]; AML01-307, time 8 weeks): 18.86% and 22% and 33.26% and 20.57% and 30.66% and 22.85%
Proportion of hCD45+ (%) in peripheral blood ([2]; AML01-307, time 9 weeks): 36.6% and 52.3% and 29.5% and 40.0%
Absolute numbers human CD45+ cells ([2]; AML18, BM): 436000 and 427000 and 629000 and 665000
Proportion of hCD45+ (%) in peripheral blood ([2]; AML18, time 1 weeks): 0.1% and 0.2% and 0.6% and 0.5% and 0.0% and 0.4%
Proportion of hCD45+ (%) in peripheral blood ([2]; AML18, time 4 weeks): 31.4%
Proportion of hCD45+ (%) in peripheral blood ([2]; AML18, time 7 weeks): 30.6% and 36.7%
Proportion of human CD45 (%) in peripheral blood ([2]; AML18 xenograft recipients): 2% and 5.6% and 2.4% and 1.6% and 4.8% and 5% and 2.26% and 2.3%
Spleen weight ([2]; PDX AML01-307): 0.115 g and 0.137 g and 0.108 g
Spleen weight ([2]; PDX AML18): 0.297 g and 0.287 g and 0.182 g and 0.316 g
